{"source": "patent US4260630A", "about": "“Skin diseases” (priority 1977, dated 1981)", "key": {"yeast DNA": {"test_system": "yeast DNA", "assay": "Photobinding to yeast DNA in vivo (radiolabelled drug plus 365 nm light)", "assay_type": "binding, Saccharomyces cerevisiae", "experimental": "(§1) The radioactivity of an aliquot (0.1 ml) of this solution was measured in 5 ml of scintillation mixture (Nuclear Entreprise, Ltd., Edinburgh, Scotland, NE 250).\n(§2) For the in vivo determinations stationary phase cells of the haploid wild type strain N 123 were prepared as previously described.\n(§3) 2 ml cell suspensions were exposed to several doses of 365 nm light. In parallel, non irradiated samples were incubated for the same periods. Immediately after incubation and/or irradiation, the samples were centrifuged and the pellet was washed 3 times with 5 ml of saline (0.9% NaCl). The washed cell pellet was resuspended in 1 ml of saline and 1 ml of 2 N NaOH was added in order to hydrolyze the RNA. The suspension was incubated overnight in the dark at room temperature, then cooled down on ice, and 2 ml of 50% TCA were added slowly. The samples were left 20 minutes on ice and the precipitated DNA was filtered on a glass fiber filter disc (Whatman GF/A, 2.1 cm diameter). In some cases the filtrate containing the acid-soluble material was kept aside, and the radioactivity of an aliquot added to 5 ml of NE250 scintillation mixture measured. The precipitate was washed 3 times with 5 ml of 5% cold TCA and 5 ml of 70% ethanol. The filters were then dried and the radioactivity measured in plastic counting vials containing 5 ml of scintillation mixture (NE 250) in a Tricarb Packard scintillation spectrophotometer."}, "Saccharomyces cerevisiae": {"test_system": "Saccharomyces cerevisiae", "experimental": "A wild-type strain 211-1aM (29) of Saccharomyces cerivisiae was used, and the following mutants derived from it: S24-12c rad2-20 deficient in excision repair and S25-13b rad9-4 likely to be blocked in a recombinational repair pathway; a double mutant S 2057NL-24 rad2-20 -rad9-4 clone B was obtained by tetrad analysis of a heterozygote [formula]\nThe media and culture conditions used were as described in D. Averbeck, E. Moustacchi, (1975) Biochim. Biophys. Acta, 395, 393-404.\n10^6 cells/ml in saline (0.9% NaCl) were treated for 30 minutes with the drugs at a final concentration of 10 μg/ml and 1.2% ethanol present.\nA Philips HPW 125 culot Edison high pressure mercury lamp was used with maximal output at the wavelength 365 nm. The irradiation dose measured by actinometry was 10 J/m^2 per sec., using the following set up: 10 ml of actinometer solution (or the cell suspension, usually 1×10^6 cells/ml), stirred continuously by a magnetic stirrer, were irradiated at room temperature in an open Petri dish of 10 cm diameter at a distance of 10 cm from the center of the light bulb which was mounted horizontally. A 2 mm thick pyrex glass sheet (20×25 cm) was placed in the center of the light beam to cut out UV light of wavelength below 340 nm. Overheating was prevented either by a continuous flow of compressed air between the light bulb and the glass or by a pyrex glass water filter of 3 cm total thickness. An accumulative irradiation dose was given to the same sample. After each dose 0.1 ml of irradiated cell suspension was taken, diluted and aliquots plated."}, "cutaneous tissue": {"test_system": "cutaneous tissue", "conditions": "in vivo; cited from earlier work"}, "yeast RNA": {"test_system": "yeast RNA", "assay": "Photobinding to yeast RNA in vivo (radiolabelled drug plus 365 nm light)", "assay_type": "binding, Saccharomyces cerevisiae", "conditions": "for cpm for 10^8 cells: RNA; for Molecules 3-CPs/μg DNA / μg 3-CPs/μg DNA: binding to RNA", "experimental": "as §1, §2, §3"}, "[1]": {"conditions": "60 min, 75.6 × 10^4 ergs.mm^-2 365 nm"}, "[2]": {"conditions": "5 min, 6.3 × 10^4 ergs.mm^-2 365 nm"}, "[3]": {"conditions": "10 min, 12.6 × 10^4 ergs.mm^-2 365 nm"}, "[4]": {"conditions": "15 min, 18.9 × 10^4 ergs.mm^-2 365 nm"}, "[5]": {"conditions": "20 min, 25.2 × 10^4 ergs.mm^-2 365 nm"}, "[6]": {"conditions": "30 min, 37.8 × 10^4 ergs.mm^-2 365 nm"}, "[7]": {"conditions": "40 min, 50.4 × 10^4 ergs.mm^-2 365 nm"}}}
{"compound": "CCOC(=O)c1cc2cc3ccoc3cc2oc1=O", "note": "[Example 3-CPs, 3-carboethoxypsoralen]", "values": [{"measurement": "cpm for 10^8 cells", "setting": "yeast DNA; [1]", "value": 16476, "unit": "cpm for 10^8 cells"}, {"measurement": "μg 3-CPs/μg DNA", "setting": "yeast DNA; [1]", "value": 10, "unit": "μg 3-CPs/μg DNA × 10^-2"}, {"measurement": "dark binding with DNA relative to that at lowest dose of irradiation", "setting": "yeast DNA; dark, 50 minutes", "value": "around 10%"}, {"measurement": "365 nm light dose up to which binding with DNA increases linearly, then levels off", "setting": "yeast DNA; in vivo", "value": "up to 25.2×10^3 J/m^2"}, {"measurement": "amount linked to DNA compared with RNA per cell", "setting": "yeast DNA; in vivo", "value": "about the same as that bound to RNA per cell"}, {"measurement": "amount linked to DNA relative to 8-MOP", "setting": "yeast DNA; in vivo", "value": "about 15 times more"}, {"measurement": "binding to DNA compared with 8-MOP", "setting": "yeast DNA; in vivo", "value": "binds to DNA much more efficiently than 8-MOP"}, {"measurement": "difference in photoreactivity with DNA in vivo, 3-CPs vs 8-MOP", "setting": "yeast DNA; in vivo", "value": 15, "unit": "factor"}, {"measurement": "difference in photoreactivity with DNA, 3-CPs vs 8-MOP", "setting": "yeast DNA; in vivo", "value": "≤ 20", "unit": "factor"}, {"measurement": "photoaffinity to DNA compared with RNA", "setting": "yeast DNA; molecular basis", "value": "much higher than to RNA"}, {"measurement": "difference in survival response, 3-CPs vs 8-MOP", "setting": "Saccharomyces cerevisiae", "value": 6, "unit": "factor"}, {"measurement": "dose-modifying factor for rad9-4 compared to wild type", "setting": "Saccharomyces cerevisiae", "value": "constant"}, {"measurement": "photobiological activity after previous exposure to light", "setting": "Saccharomyces cerevisiae", "value": "decline in the photobiological activity"}, {"measurement": "resistance to the killing effect compared with 8-MOP", "setting": "Saccharomyces cerevisiae", "value": "much higher than that expected from the photoreactivity"}, {"measurement": "shape of survival curve", "setting": "Saccharomyces cerevisiae", "value": "exponential survival curve"}, {"measurement": "survival level compared with 8-MOP", "setting": "Saccharomyces cerevisiae", "value": "still relatively high as compared to that for 8-MOP"}, {"measurement": "survivors", "setting": "Saccharomyces cerevisiae; saline, 5 min", "value": "10^-1"}, {"measurement": "concentration versus 365 nm light dose, log-log plot at given survival", "setting": "Saccharomyces cerevisiae; wild type and rad9-4", "value": "follows a linear function"}, {"measurement": "reciprocity between light dose and drug concentration for cell killing", "setting": "Saccharomyces cerevisiae; wild type and rad9-4", "value": "no reciprocity between the light dose and the drug concentration"}, {"measurement": "photosensitizing activity", "setting": "cutaneous tissue", "value": "completely inactive"}, {"measurement": "photoaffinity for RNA", "setting": "yeast RNA", "value": "relatively low photoaffinity for RNA"}, {"measurement": "cpm for 10^8 cells", "setting": "yeast RNA; 5-60 min, no 365 nm light", "value": 1285, "unit": "cpm for 10^8 cells"}, {"measurement": "cpm for 10^8 cells", "setting": "yeast RNA; [2]", "value": 7130, "unit": "cpm for 10^8 cells"}, {"measurement": "cpm for 10^8 cells", "setting": "yeast RNA; [3]", "value": 11040, "unit": "cpm for 10^8 cells"}, {"measurement": "cpm for 10^8 cells", "setting": "yeast RNA; [4]", "value": 14170, "unit": "cpm for 10^8 cells"}, {"measurement": "cpm for 10^8 cells", "setting": "yeast RNA; [5]", "value": 18780, "unit": "cpm for 10^8 cells"}, {"measurement": "cpm for 10^8 cells", "setting": "yeast RNA; [6]", "value": 25380, "unit": "cpm for 10^8 cells"}, {"measurement": "cpm for 10^8 cells", "setting": "yeast RNA; [7]", "value": 29240, "unit": "cpm for 10^8 cells"}, {"measurement": "cpm for 10^8 cells", "setting": "yeast RNA; [1]", "value": 31730, "unit": "cpm for 10^8 cells"}, {"measurement": "Molecules 3-CPs/μg DNA", "setting": "yeast RNA; 5-60 min, no 365 nm light", "value": "0.0023 Molecules 3-CPs/μg DNA × 10^14"}, {"measurement": "μg 3-CPs/μg DNA", "setting": "yeast RNA; 5-60 min, no 365 nm light", "value": 0.01, "unit": "μg 3-CPs/μg DNA × 10^-2"}, {"measurement": "Molecules 3-CPs/μg DNA", "setting": "yeast RNA; [2]", "value": "0.0130 Molecules 3-CPs/μg DNA × 10^14"}, {"measurement": "μg 3-CPs/μg DNA", "setting": "yeast RNA; [2]", "value": 0.056, "unit": "μg 3-CPs/μg DNA × 10^-2"}, {"measurement": "Molecules 3-CPs/μg DNA", "setting": "yeast RNA; [3]", "value": "0.020 Molecules 3-CPs/μg DNA × 10^14"}, {"measurement": "μg 3-CPs/μg DNA", "setting": "yeast RNA; [3]", "value": 0.086, "unit": "μg 3-CPs/μg DNA × 10^-2"}, {"measurement": "Molecules 3-CPs/μg DNA", "setting": "yeast RNA; [4]", "value": "0.026 Molecules 3-CPs/μg DNA × 10^14"}, {"measurement": "μg 3-CPs/μg DNA", "setting": "yeast RNA; [4]", "value": 0.11, "unit": "μg 3-CPs/μg DNA × 10^-2"}, {"measurement": "Molecules 3-CPs/μg DNA", "setting": "yeast RNA; [5]", "value": "0.034 Molecules 3-CPs/μg DNA × 10^14"}, {"measurement": "μg 3-CPs/μg DNA", "setting": "yeast RNA; [5]", "value": 0.15, "unit": "μg 3-CPs/μg DNA × 10^-2"}, {"measurement": "Molecules 3-CPs/μg DNA", "setting": "yeast RNA; [6]", "value": "0.046 Molecules 3-CPs/μg DNA × 10^14"}, {"measurement": "μg 3-CPs/μg DNA", "setting": "yeast RNA; [6]", "value": 0.20, "unit": "μg 3-CPs/μg DNA × 10^-2"}, {"measurement": "Molecules 3-CPs/μg DNA", "setting": "yeast RNA; [7]", "value": "0.053 Molecules 3-CPs/μg DNA × 10^14"}, {"measurement": "μg 3-CPs/μg DNA", "setting": "yeast RNA; [7]", "value": 0.23, "unit": "μg 3-CPs/μg DNA × 10^-2"}, {"measurement": "Molecules 3-CPs/μg DNA", "setting": "yeast RNA; [1]", "value": "0.058 Molecules 3-CPs/μg DNA × 10^14"}, {"measurement": "μg 3-CPs/μg DNA", "setting": "yeast RNA; [1]", "value": 0.25, "unit": "μg 3-CPs/μg DNA × 10^-2"}, {"measurement": "dark binding with RNA relative to that at lowest dose of irradiation", "setting": "yeast RNA; dark, 50 minutes", "value": 20, "unit": "%"}, {"measurement": "365 nm light dose up to which binding with RNA increases linearly, then levels off", "setting": "yeast RNA; in vivo", "value": "up to 25.2×10^3 J/m^2"}, {"measurement": "difference in photoreactivity with RNA, 3-CPs vs 8-MOP", "setting": "yeast RNA; in vivo", "value": 3.4, "unit": "factor"}]}
